Assay results published in US12543734B2, “Herbicidal compositions comprising dimethenamid” (BASF SE, priority 2024, dated 2026).

Assays:
Type in all cases: in vivo
Setaria viridis (SETVI) = assay: Example 1 post-emergence field trial (1% MSO); details: height 7-13 cm, 20-21 DAT, A-1 20 g ai/ha, B-2 735 g ai/ha
Experimental: (§1) In the examples below, using the method of S. R. Colby (1967) “Calculating synergistic and antagonistic responses of herbicide combinations”, Weeds 15, p. 22ff., the value E, which is expected if the activity of the individual active compounds is only additive, was calculated:
(§2) [formula] • where • X=percent activity using active herbicide A at an application rate a; • Y=percent activity using active herbicide B (e.g. DMTA-p) at an application rate b; • E=expected activity (in %) by A+B at application rates a+b.
(§3) If the value found experimentally is higher than the value E calculated according to Colby, a synergistic effect is present.
(§4) On field test sites, natural weed infestation or seeded weeds were treated post-emergence of the weeds.
(§5) In the field trials, the weeds were treated as indicated below.
(§6) In the following experiments, the herbicidal activity for the individual herbicidal compositions (solo and mixture applications) was assessed at the indicated days after treatment (DAT). The assessments for the damage on undesired weeds caused by the composition was carried out using a scale from 0 to 100%, compared to the untreated control plants. Here, 0 means no damage and 100 means complete destruction of the plants.
(§7) Post-Emergence Application of Herbicide A-1 (A-1) and Dimethenamid-P (DMTA-p; B-2) in Field Trials
(§8) Herbicide A-1 (100 g/l) and DMTA-p (720 g/l) were, together with addition of 1% MSO (methylated sed oil) as adjuvant, formulated in water as distribution medium (water volume 200 l/ha) and sprayed with commercial flat fan nozzles.

Helanthus annuus (HELAN) [1] = assay: Example 1 post-emergence field trial (1% MSO); details: height 20-25 cm, 20-21 DAT, A-1 20 g ai/ha, B-2 735 g ai/ha
Experimental: as §1, §2, §3, §4, §5, §6, §7, §8

[2] = tested on: Amaranthus tamariscinus (AMATA); assay: Example 1 post-emergence field trial (1% MSO); details: height 20-25 cm, 20-21 DAT, A-1 20 g ai/ha, B-2 735 g ai/ha
Experimental: as §1, §2, §3, §4, §5, §6, §7, §8

Setaria faberi (SETFA) = assay: Example 1 post-emergence field trial (1% MSO); details: height 7-13 cm, 20-21 DAT, A-1 20 g ai/ha, B-2 735 g ai/ha
Experimental: as §1, §2, §3, §4, §5, §6, §7, §8

Sorghum bicolor (SORVU) [3] = assay: Example 1 post-emergence field trial (1% MSO); details: height 25-30 cm, 20-21 DAT, A-1 30 g ai/ha, B-2 735 g ai/ha
Experimental: as §1, §2, §3, §4, §5, §6, §7, §8

[4] = tested on: Echinochloa crus-galli (ECHCG); assay: Example 1 post-emergence field trial (1% MSO); details: height 10-15 cm, 20-21 DAT, B-2 735 g ai/ha
Experimental: as §1, §2, §3, §4, §5, §6, §7, §8

[5] = tested on: Amaranthus palmeri (AMAPA); assay: Example 1 post-emergence field trial (1% MSO); details: 20-21 DAT, B-2 735 g ai/ha
Experimental: as §1, §2, §3, §4, §5, §6, §7, §8

[6] = tested on: Digitaria sanguinalis (DIGSA); assay: Example 1 post-emergence field trial (1% MSO); details: height 2-13 cm, 20-21 DAT, A-1 20 g ai/ha, B-2 735 g ai/ha
Experimental: as §1, §2, §3, §4, §5, §6, §7, §8

[7] = tested on: Amaranthus retroflexus (AMARE); assay: Example 2 post-emergence field trial (1% MSO and AMS); details: B-2 735 g ai/ha
Experimental: as §1, §2, §3, §4, §5, §6, §7
(§9) Herbicide A-1 (100 g/l) and DMTA-p (720 g/l) were, together with addition of 1% MSO (methylated sed oil) and AMS (ammonium sulfate) as adjuvant, formulated in water as distribution medium (water volume 200 l/ha) and sprayed with commercial flat fan nozzles.

Eleusine indica (ELEIN) [8] = assay: as above; details: B-2 735 g ai/ha
Experimental: as §1, §2, §3, §4, §5, §6, §7, §9

[9] = tested on: Chenopodium album (CHEAL); assay: as above; details: height 17-23 cm, 21-24 DAT, A-1 12.5 g ai/ha, B-2 735 g ai/ha
Experimental: as §1, §2, §3, §4, §5, §6, §7, §9

[10] = tested on: Amaranthus tamariscinus (AMATA); assay: as above; details: B-2 735 g ai/ha
Experimental: as §1, §2, §3, §4, §5, §6, §7, §9

[11] = tested on: Echinochloa crus-galli (ECHCG); assay: as above; details: height 7-15 cm, 18-21 DAT, B-2 735 g ai/ha
Experimental: as §1, §2, §3, §4, §5, §6, §7, §9

[12] = tested on: Amaranthus palmeri (AMAPA); assay: as above; details: B-2 735 g ai/ha
Experimental: as §1, §2, §3, §4, §5, §6, §7, §9

[13] = tested on: Abutilon theophrasti (ABUTH); assay: as above; details: height 10-20 cm, 21-24 DAT, A-1 12.5 g ai/ha, B-2 735 g ai/ha
Experimental: as §1, §2, §3, §4, §5, §6, §7, §9

[14] = tested on: Digitaria sanguinalis (DIGSA); assay: as above; details: height 2-8 cm, 18-21 DAT, A-1 25 g ai/ha, B-2 735 g ai/ha
Experimental: as §1, §2, §3, §4, §5, §6, §7, §9

[15] = tested on: Portulaca oleracea (POROL); assay: as above; details: B-2 735 g ai/ha
Experimental: as §1, §2, §3, §4, §5, §6, §7, §9

Zea mays (ZEAMX) [16] = assay: Example 3 post-emergence field trial, volunteer crop plants (1% MSO); details: height 43-51 cm, 20 DAT, B-2 735 g ai/ha
Experimental: as §1, §2, §3, §4, §5, §6, §7, §8

Glycine max (GLXMA) [17] = assay: as above; details: height 6-15 cm, 20 DAT, A-1 30 g ai/ha, B-2 735 g ai/ha
Experimental: as §1, §2, §3, §4, §5, §6, §7, §8

Zea mays (ZEAMX) [18] = assay: Example 4 post-emergence field trial (1% MSO and AMS); details: 21-24 DAT, B-2 735 g ai/ha
Experimental: as §1, §2, §3, §4, §5, §6, §7, §9

Eleusine indica (ELEIN) [19] = assay: as above; details: height 15-20 cm, 21-24 DAT, A-1 12.5 g ai/ha, B-2 735 g ai/ha
Experimental: as §1, §2, §3, §4, §5, §6, §7, §9

Helanthus annuus (HELAN) [20] = assay: as above; details: height 10-20 cm, 20 DAT, A-1 12.5 g ai/ha, B-2 735 g ai/ha
Experimental: as §1, §2, §3, §4, §5, §6, §7, §9

Sorghum bicolor (SORVU) [21] = assay: as above; details: height 15-20 cm, 20 DAT, A-1 12.5 g ai/ha, B-2 735 g ai/ha
Experimental: as §1, §2, §3, §4, §5, §6, §7, §9

Glycine max (GLXMA) [22] = assay: as above; details: 21-24 DAT, A-1 12.5 g ai/ha, B-2 735 g ai/ha
Experimental: as §1, §2, §3, §4, §5, §6, §7, §9

[23] = height 10-18 cm, A-1 20 g ai/ha
[24] = height 10-18 cm, A-1 30 g ai/ha
[25] = height 7-15 cm, 18-21 DAT, A-1 25 g ai/ha
[26] = height 10-20 cm, 21-24 DAT, A-1 25 g ai/ha
[27] = height 17-28 cm, 21-24 DAT, A-1 12.5 g ai/ha
[28] = height 7-10 cm, 18-21 DAT, A-1 12.5 g ai/ha
[29] = height 7-10 cm, 18-21 DAT, A-1 25 g ai/ha
[30] = height 15-20 cm, 21-24 DAT, A-1 25 g ai/ha
[31] = height 5-13 cm, 18-21 DAT, A-1 12.5 g ai/ha
[32] = height 7-15 cm, 18-21 DAT, A-1 12.5 g ai/ha
[33] = height 20-25 cm, 21-24 DAT, A-1 12.5 g ai/ha
[34] = height 2-13 cm, 18-21 DAT, A-1 25 g ai/ha
[35] = height 10-20 cm, 21-24 DAT, A-1 12.5 g ai/ha

## CCOC(=O)COc1ccccc1Oc1nc(-n2c(=O)cc(C(F)(F)F)n(C)c2=O)c(F)cc1Cl [A-1, ethyl 2-[2-[[3-chloro-5-fluoro-6-[3-methyl-2,6-dioxo-4-(trifluoromethyl)pyrimidin-1-yl]-2-pyridyl]oxy]phenoxy]acetate]
Setaria viridis (SETVI)
  % herbicidal activity: 97%
Helanthus annuus (HELAN) [1]
  % herbicidal activity: 99%
[2]
  % herbicidal activity: 70%
Setaria faberi (SETFA)
  % herbicidal activity: 97%
Sorghum bicolor (SORVU) [3]
  % herbicidal activity: 93%
[4]; A-1 20 g ai/ha
  % herbicidal activity: 77%
[4]; A-1 30 g ai/ha
  % herbicidal activity: 80%
[5]; height 2-12 cm, A-1 20 g ai/ha
  % herbicidal activity: 99%
[5]; height 2-12 cm, A-1 30 g ai/ha
  % herbicidal activity: 99%
[5]; [23]
  % herbicidal activity: 77%
[5]; [24]
  % herbicidal activity: 80%
[6]
  % herbicidal activity: 97%
[7]; [25]
  % herbicidal activity: 85%
[7]; [26]
  % herbicidal activity: 82%
[7]; [27]
  % herbicidal activity: 67%
Eleusine indica (ELEIN) [8]; [28]
  % herbicidal activity: 18%
Eleusine indica (ELEIN) [8]; [29]
  % herbicidal activity: 78%
Eleusine indica (ELEIN) [8]; [30]
  % herbicidal activity: 55%
[9]
  % herbicidal activity: 77%
[10]; [31]
  % herbicidal activity: 90%
[10]; [25]
  % herbicidal activity: 85%
[10]; [26]
  % herbicidal activity: 77%
[10]; [27]
  % herbicidal activity: 67%
[11]; A-1 12.5 g ai/ha
  % herbicidal activity: 82%
[11]; A-1 25 g ai/ha
  % herbicidal activity: 85%
[12]; [32]
  % herbicidal activity: 42%
[12]; [25]
  % herbicidal activity: 64%
[12]; [33]
  % herbicidal activity: 74%
[13]
  % herbicidal activity: 98%
[14]
  % herbicidal activity: 97%
[15]; [34]
  % herbicidal activity: 93%
[15]; [35]
  % herbicidal activity: 80%
[15]; [26]
  % herbicidal activity: 87%
Zea mays (ZEAMX) [16]; A-1 20 g ai/ha
  % herbicidal activity: 72%
Zea mays (ZEAMX) [16]; A-1 30 g ai/ha
  % herbicidal activity: 88%
Glycine max (GLXMA) [17]
  % herbicidal activity: 98%
Zea mays (ZEAMX) [18]; A-1 12.5 g ai/ha
  % herbicidal activity: 67%
Zea mays (ZEAMX) [18]; A-1 25 g ai/ha
  % herbicidal activity: 83%
Eleusine indica (ELEIN) [19]
  % herbicidal activity: 27%
Helanthus annuus (HELAN) [20]
  % herbicidal activity: 93%
Sorghum bicolor (SORVU) [21]
  % herbicidal activity: 87%
Glycine max (GLXMA) [22]
  % herbicidal activity: 90%

## COC[C@H](C)N(C(=O)CCl)c1c(C)csc1C [B-2, dimethenamid-P]
Setaria viridis (SETVI)
  % herbicidal activity: 0%
Helanthus annuus (HELAN) [1]
  % herbicidal activity: 0%
[2]
  % herbicidal activity: 0%
Setaria faberi (SETFA)
  % herbicidal activity: 0%
Sorghum bicolor (SORVU) [3]
  % herbicidal activity: 0%
[4]; A-1 20 g ai/ha
  % herbicidal activity: 0%
[4]; A-1 30 g ai/ha
  % herbicidal activity: 0%
[5]; height 2-12 cm, A-1 20 g ai/ha
  % herbicidal activity: 37%
[5]; height 2-12 cm, A-1 30 g ai/ha
  % herbicidal activity: 37%
[5]; [23]
  % herbicidal activity: 0%
[5]; [24]
  % herbicidal activity: 0%
[6]
  % herbicidal activity: 0%
[7]; [25]
  % herbicidal activity: 0%
[7]; [26]
  % herbicidal activity: 47%
[7]; [27]
  % herbicidal activity: 0%
Eleusine indica (ELEIN) [8]; [28]
  % herbicidal activity: 0%
Eleusine indica (ELEIN) [8]; [29]
  % herbicidal activity: 0%
Eleusine indica (ELEIN) [8]; [30]
  % herbicidal activity: 0%
[9]
  % herbicidal activity: 0%
[10]; [31]
  % herbicidal activity: 15%
[10]; [25]
  % herbicidal activity: 0%
[10]; [26]
  % herbicidal activity: 47%
[10]; [27]
  % herbicidal activity: 0%
[11]; A-1 12.5 g ai/ha
  % herbicidal activity: 0%
[11]; A-1 25 g ai/ha
  % herbicidal activity: 0%
[12]; [32]
  % herbicidal activity: 0%
[12]; [25]
  % herbicidal activity: 0%
[12]; [33]
  % herbicidal activity: 0%
[13]
  % herbicidal activity: 35%
[14]
  % herbicidal activity: 5%
[15]; [34]
  % herbicidal activity: 7%
[15]; [35]
  % herbicidal activity: 28%
[15]; [26]
  % herbicidal activity: 28%
Zea mays (ZEAMX) [16]; A-1 20 g ai/ha
  % herbicidal activity: 0%
Zea mays (ZEAMX) [16]; A-1 30 g ai/ha
  % herbicidal activity: 0%
Glycine max (GLXMA) [17]
  % herbicidal activity: 0%
Zea mays (ZEAMX) [18]; A-1 12.5 g ai/ha
  % herbicidal activity: 0%
Zea mays (ZEAMX) [18]; A-1 25 g ai/ha
  % herbicidal activity: 0%
Eleusine indica (ELEIN) [19]
  % herbicidal activity: 0%
Helanthus annuus (HELAN) [20]
  % herbicidal activity: 0%
Sorghum bicolor (SORVU) [21]
  % herbicidal activity: 0%
Glycine max (GLXMA) [22]
  % herbicidal activity: 0%
